Laboratory results: PubChem BioAssay (NCI)
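Dose response: 5 concentrations. Exposure: 48 h. Format: 96-well plates. Endpoint: linear interpolation; highest concentration if not reached. GI50 is the concentration that inhibits growth by half. TGI: total growth inhibition.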

How the values were obtained:
Assay in all cases: NCI-60 cell line screen, 48 h
NCI-H522 lung = test system: NCI-H522 lung
KM12 colon = test system: KM12 colon
HS 578T breast = test system: HS 578T breast
BT-549 breast = test system: BT-549 breast
DU-145 prostate = test system: DU-145 prostate
HCC-2998 colon = test system: HCC-2998 colon
A549 NSCLC = test system: A549 NSCLC
A498 renal = test system: A498 renal
SW-620 colon = test system: SW-620 colon
COLO 205 colon = test system: COLO 205 colon
HT29 colon = test system: HT29 colon
U251 CNS = test system: U251 CNS
IGROV1 ovarian = test system: IGROV1 ovarian
SR leukemia = test system: SR leukemia
OVCAR-4 ovarian = test system: OVCAR-4 ovarian
SN12C renal = test system: SN12C renal
SNB-19 CNS = test system: SNB-19 CNS
MDA-MB-231 breast = test system: MDA-MB-231 breast
NCI-H23 lung = test system: NCI-H23 lung
UO-31 renal = test system: UO-31 renal
RPMI-8226 leukemia = test system: RPMI-8226 leukemia
SF-295 CNS = test system: SF-295 CNS
MOLT-4 leukemia = test system: MOLT-4 leukemia
NCI-H460 lung = test system: NCI-H460 lung
786-0 renal = test system: 786-0 renal
SK-OV-3 ovarian = test system: SK-OV-3 ovarian
K-562 leukemia = test system: K-562 leukemia
HOP-92 NSCLC = test system: HOP-92 NSCLC
MCF7 breast = test system: MCF7 breast
M14 melanoma = test system: M14 melanoma
HCT-15 colon = test system: HCT-15 colon
HCT-116 colon = test system: HCT-116 colon
OVCAR-3 ovarian = test system: OVCAR-3 ovarian
HOP-62 NSCLC = test system: HOP-62 NSCLC
MALME-3M melanoma = test system: MALME-3M melanoma
RXF 393 renal = test system: RXF 393 renal
NCI/ADR-RES ovarian = test system: NCI/ADR-RES ovarian
OVCAR-5 ovarian = test system: OVCAR-5 ovarian
SF-539 CNS = test system: SF-539 CNS
SK-MEL-2 melanoma = test system: SK-MEL-2 melanoma
T-47D breast = test system: T-47D breast
UACC-62 melanoma = test system: UACC-62 melanoma
ACHN renal = test system: ACHN renal
CAKI-1 renal = test system: CAKI-1 renal
PC-3 prostate = test system: PC-3 prostate
NCI-H226 lung = test system: NCI-H226 lung
OVCAR-8 ovarian = test system: OVCAR-8 ovarian
UACC-257 melanoma = test system: UACC-257 melanoma
MDA-MB-435 = test system: MDA-MB-435
HL-60(TB) leukemia = test system: HL-60(TB) leukemia
SF-268 CNS = test system: SF-268 CNS
LOX IMVI melanoma = test system: LOX IMVI melanoma
CCRF-CEM leukemia = test system: CCRF-CEM leukemia
SK-MEL-28 melanoma = test system: SK-MEL-28 melanoma
SNB-75 CNS = test system: SNB-75 CNS
TK-10 renal = test system: TK-10 renal

`CC(=O)Oc1cc2cnc3c4cc(OC(C)=O)c(OC(C)=O)cc4ccc3c2cc1OC(C)=O` was tested, and the GI50 (NCI-H522 lung) was 0.392 µM, the TGI (NCI-H522 lung) was 4.56 µM and the GI50 (KM12 colon) was 2.47 µM. The TGI (KM12 colon) was > 100 µM, the GI50 (HS 578T breast) was 1.01 µM and the TGI (HS 578T breast) was 9.56 µM. For the same molecule, the GI50 (BT-549 breast) was 1.35 µM, the TGI (BT-549 breast) was 8.4 µM and the GI50 (DU-145 prostate) was 2.61 µM. The TGI (DU-145 prostate) was > 100 µM, the GI50 (HCC-2998 colon) was 3.74 µM and the TGI (HCC-2998 colon) was > 100 µM. For the same molecule, the GI50 (A549 NSCLC) was 3.69 µM, the TGI (A549 NSCLC) was > 100 µM and the GI50 (A498 renal) was 0.443 µM. For the same molecule, the TGI (A498 renal) was 1.84 µM, the GI50 (SW-620 colon) was 0.952 µM and the TGI (SW-620 colon) was > 100 µM. For the same molecule, the GI50 (COLO 205 colon) was 4.3 µM, the TGI (COLO 205 colon) was > 100 µM and the GI50 (HT29 colon) was 4.18 µM. For the same molecule, the TGI (HT29 colon) was > 100 µM, the GI50 (U251 CNS) was 0.548 µM and the TGI (U251 CNS) was 10.6 µM. The GI50 (IGROV1 ovarian) was 1.01 µM, the TGI (IGROV1 ovarian) was 14 µM and the GI50 (SR leukemia) was 0.629 µM. For the same molecule, the TGI (SR leukemia) was > 100 µM, the GI50 (OVCAR-4 ovarian) was 1.35 µM and the TGI (OVCAR-4 ovarian) was > 100 µM. For the same molecule, the GI50 (SN12C renal) was 2.18 µM, the TGI (SN12C renal) was > 100 µM and the GI50 (SNB-19 CNS) was 0.594 µM. For the same molecule, the TGI (SNB-19 CNS) was 65.9 µM, the GI50 (MDA-MB-231 breast) was 1.02 µM and the TGI (MDA-MB-231 breast) was > 100 µM. For the same molecule, the GI50 (NCI-H23 lung) was 2.54 µM, the TGI (NCI-H23 lung) was > 100 µM and the GI50 (UO-31 renal) was 0.472 µM. The TGI (UO-31 renal) was > 100 µM, the GI50 (RPMI-8226 leukemia) was 1.66 µM and the TGI (RPMI-8226 leukemia) was > 100 µM. The GI50 (SF-295 CNS) was 3.36 µM, the TGI (SF-295 CNS) was > 100 µM and the GI50 (MOLT-4 leukemia) was 0.812 µM. The TGI (MOLT-4 leukemia) was > 100 µM, the GI50 (NCI-H460 lung) was 0.569 µM and the TGI (NCI-H460 lung) was > 100 µM. The GI50 (786-0 renal) was 2.99 µM, the TGI (786-0 renal) was 16.3 µM and the GI50 (SK-OV-3 ovarian) was 4.32 µM. The TGI (SK-OV-3 ovarian) was > 100 µM, the GI50 (K-562 leukemia) was 2.08 µM and the TGI (K-562 leukemia) was > 100 µM. The GI50 (HOP-92 NSCLC) was 0.538 µM, the TGI (HOP-92 NSCLC) was 37.9 µM and the GI50 (MCF7 breast) was 0.638 µM. The TGI (MCF7 breast) was > 100 µM, the GI50 (M14 melanoma) was 1.78 µM and the TGI (M14 melanoma) was > 100 µM. The GI50 (HCT-15 colon) was 1.06 µM, the TGI (HCT-15 colon) was > 100 µM and the GI50 (HCT-116 colon) was 0.471 µM. The TGI (HCT-116 colon) was 3.86 µM, the GI50 (OVCAR-3 ovarian) was 1.01 µM and the TGI (OVCAR-3 ovarian) was 9.5 µM. The GI50 (HOP-62 NSCLC) was 1.86 µM, the TGI (HOP-62 NSCLC) was 59.4 µM and the GI50 (MALME-3M melanoma) was 1.55 µM. It also gave a TGI (MALME-3M melanoma) of 9.33 µM, a GI50 (RXF 393 renal) of 1.79 µM and a TGI (RXF 393 renal) of 8.88 µM. For the same molecule, the GI50 (NCI/ADR-RES ovarian) was 1.88 µM, the TGI (NCI/ADR-RES ovarian) was > 100 µM and the GI50 (OVCAR-5 ovarian) was 3.93 µM. The TGI (OVCAR-5 ovarian) was > 100 µM, the GI50 (SF-539 CNS) was 1.3 µM and the TGI (SF-539 CNS) was 4.46 µM. For the same molecule, the GI50 (SK-MEL-2 melanoma) was 4.5 µM, the TGI (SK-MEL-2 melanoma) was 79.9 µM and the GI50 (T-47D breast) was 0.898 µM. For the same molecule, the TGI (T-47D breast) was > 100 µM, the GI50 (UACC-62 melanoma) was 0.979 µM and the TGI (UACC-62 melanoma) was 3.26 µM. The GI50 (ACHN renal) was 1.19 µM, the TGI (ACHN renal) was > 100 µM and the GI50 (CAKI-1 renal) was 0.611 µM. For the same molecule, the TGI (CAKI-1 renal) was > 100 µM, the GI50 (PC-3 prostate) was 3.27 µM and the TGI (PC-3 prostate) was > 100 µM. For the same molecule, the GI50 (NCI-H226 lung) was 2.04 µM, the TGI (NCI-H226 lung) was 8.91 µM and the GI50 (OVCAR-8 ovarian) was 1.97 µM. For the same molecule, the TGI (OVCAR-8 ovarian) was 31.2 µM, the GI50 (UACC-257 melanoma) was 2.56 µM and the TGI (UACC-257 melanoma) was > 100 µM. For the same molecule, the GI50 (MDA-MB-435) was 0.506 µM, the TGI (MDA-MB-435) was > 100 µM and the GI50 (HL-60(TB) leukemia) was 3.26 µM. The TGI (HL-60(TB) leukemia) was 19.8 µM, the GI50 (SF-268 CNS) was 1.22 µM and the TGI (SF-268 CNS) was 17.6 µM. The GI50 (LOX IMVI melanoma) was 1.23 µM, the TGI (LOX IMVI melanoma) was > 100 µM and the GI50 (CCRF-CEM leukemia) was 0.608 µM. For the same molecule, the TGI (CCRF-CEM leukemia) was > 100 µM, the GI50 (SK-MEL-28 melanoma) was 3.15 µM and the TGI (SK-MEL-28 melanoma) was > 100 µM. For the same molecule, the GI50 (SNB-75 CNS) was 0.25 µM, the TGI (SNB-75 CNS) was 7.7 µM and the GI50 (TK-10 renal) was 2.78 µM. For the same molecule, the TGI (TK-10 renal) was > 100 µM.
